Source: PMC4306921 (Scientific Reports, 2015)

Assays:
Assay type in all cases: cell-based
[1] = system: CHO-K1 cells; settings: CHO-K1, no receptor plasmid, 10 μM 5-HT, 12–24 h
[2] = system: 293T cells; settings: no receptor plasmid, 10 μM 5-HT, 12–24 h
[3] = system: adenylyl cyclase; experiment: FSK stimulation in the CRE-luc reporter gene assay system; settings: read-out: EC50 value of FSK in reporter gene assay system; data not shown
[4] = target: 5-HT2A receptor (Homo sapiens, UniProt P28223); experiment: CRE-luc luciferase reporter gene assay, 5-HT2A transfected CHO-K1 cells; settings: 5-HT2A transfected cells, 0.1 μM antagonist, 5-HT lower than 1 μM
Chain of 5-HT2A receptor (P28223 whole entry): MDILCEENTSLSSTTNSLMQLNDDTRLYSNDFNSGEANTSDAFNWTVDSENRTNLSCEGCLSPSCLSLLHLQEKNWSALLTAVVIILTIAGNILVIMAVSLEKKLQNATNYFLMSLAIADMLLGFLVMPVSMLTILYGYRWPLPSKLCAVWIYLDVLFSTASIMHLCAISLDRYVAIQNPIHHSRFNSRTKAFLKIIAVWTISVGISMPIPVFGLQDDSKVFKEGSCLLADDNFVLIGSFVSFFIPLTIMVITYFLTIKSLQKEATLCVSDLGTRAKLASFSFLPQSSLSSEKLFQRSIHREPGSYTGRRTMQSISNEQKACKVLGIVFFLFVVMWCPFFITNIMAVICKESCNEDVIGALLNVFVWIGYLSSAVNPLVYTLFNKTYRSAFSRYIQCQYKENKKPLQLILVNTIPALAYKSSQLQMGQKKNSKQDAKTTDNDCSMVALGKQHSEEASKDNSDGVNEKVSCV

## NCCc1c[nH]c2ccc(O)cc12 [5-HT]
[1]
  nonspecific/endogenous activation of CRE-luc by 5-HT: no nonspecific and endogenous activation was observed
[2]
  nonspecific/endogenous activation of CRE-luc by 5-HT: significantly expression of luciferase was detected

## C=C[C@@]1(C)CC(=O)[C@]2(O)[C@@]3(C)[C@@H](O)CCC(C)(C)[C@@H]3[C@H](O)[C@H](OC(C)=O)[C@@]2(C)O1 [FSK]
[3]
  EC50: 780 nM

## CSc1ccc2c(c1)C(N1CCN(C)CC1)Cc1ccccc1S2 (stereo not shown) [Methiothepin]
[4]
  suppression of luciferase reporter gene expression: significantly suppress
